This is an account of results in patent publication US4758572A, “Antiviral combinations” (Burroughs Wellcome Co., priority 1983, dated 1988).

Structures are written as SMILES. pEC50: −log10 of the molar value. Where two headings read alike, the source gives them in different places.

This assay concerns HSV type1 H29 Strain. The experiment in a line: Yield reduction assay with HSV type 1 H29 strain. The assay is classed as cell-based, herpes simplex virus type 1. The note with it: read-out: ED50 (the source's name). The text has this:
(1) Examples of Mutual Enhancement of the Antiherpetic Activities of 2-Acetylpyridine-4-(2-morpholinoethyl)thiosemicarbazone (compound A) and Acyclovir (ACV).
^a Yield reduction assay with HSV type1 H29 Strain

As for `Nc1nc2c(ncn2COCCO)c(=O)[nH]1` [ACV, 9-(2-hydroxyethoxymethyl)guanine], the pEC50 was 7.70 (ACV with addition of 1 μM Compound A) and 6.22 (Addition: none).

As for `CC(=NNC(=S)NCCN1CCOCC1)c1ccccn1` [Compound A, 2-Acetylpyridine-4-(2-morpholinoethyl)thiosemicarbazone], the pEC50 (Addition: none) is 5.30 and the pEC50 (Compound A with addition of 0.2 μM ACV) is 6.15.
